In ChEMBL document CHEMBL1143692, “Modulating paclitaxel bioavailability for targeting prostate cancer” (Bioorg Med Chem, 2007):
Starred links: 1 amine or outer side, 2 acyl side, 3 side chain; linkers in the order of their positions; H or OH if unused. Residues, ends and D or L forms follow the SMILES beside them. *: point of attachment. Morpholide = C1CN(*)CCO1; CO = O=C([*:1])[*:2]

Columns and labels:
TSU [1] = test: Growth inhibition of human TSU cells at 1 nM; format: functional
Serum = test: Degradation in serum at 100 uM after 48 hrs; format: functional, Homo sapiens
Plasma = test: Degradation in plasma at 100 uM after 48 hrs; format: functional, Homo sapiens
[2] = test system: prostate-specific antigen; test: Half life in Tris buffer at pH 7.8, 37 degC for 48 hrs in presence of prostate-specific antigen at 100 uM; format: ADME, Prostate gland; conditions: Tris buffer with prostate-specific antigen
[3] = Half life in serum at 100 uM after 48 hrs at 37 degC; format: ADME, cell-free; conditions: human
Homo sapiens [4] = organism: Homo sapiens; test: Activity at prostate-specific antigen hydrolysis at pH 7.8; format: tissue-based; conditions: Prostate gland
Homo sapiens [5] = organism: Homo sapiens; test: Ratio of […] for prostate-specific antigen; conditions: Prostate gland
[6] = Growth inhibition of human CWR22Rv1 cells; format: functional, cell-based, CWR22R; conditions: 22Rv1
[7] = Cytotoxicity against human CWR22Rv1 cells after 96 hrs; format: functional, cell-based, CWR22R; conditions: 22Rv1, 96 h
DU-145 [8] = test: Growth inhibition of human DU145 cells; format: functional, cell-based
TSU [9] = test: Growth inhibition of human TSU cells; format: functional, cell-based
DU-145 [10] = test: Toxicity against human DU145 cells upto 100 uM; format: functional, cell-based
TSU [11] = test: Toxicity against human TSU cells upto 100 uM; format: functional, cell-based
CWR22R = test: Toxicity against human CWR22Rv1 cells upto 100 uM; format: functional, cell-based

| SMILES | inhibition at 0.001 µM (TSU [1]) [%] | Activity (Serum) [%] | Percent degraded (Plasma) [%] | half-life at 100 µM [2] [h] | half-life at 100 µM [3] [h] | other results |
| --- | --- | --- | --- | --- | --- | --- |
| CC(=O)O[C@H]1C(=O)[C@@]2(C)[C@H]([C@H](OC(=O)c3ccccc3)[C@]3(O)C[C@H](OC(=O)[C@H](O)[C@@H](NC(=O)c4ccccc4)c4ccccc4)C(C)=C1C3(C)C)[C@]1(OC(C)=O)CO[C@@H]1C[C@@H]2O [PACLITAXEL] | 90 | – | – | – | – | – |
| CC(=O)O[C@H]1C(=O)[C@]2(C)[C@@H](O)C[C@@H]3OC[C@]3(OC(C)=O)[C@@H]2[C@H](OC(=O)c2ccccc2)[C@]2(O)C[C@@H](OC(=O)[C@H](OC(=O)N(C)CCNC(=O)[C@H](CCC(N)=O)NC(=O)[C@H](CC(C)C)NC(=O)[C@H](CCCCN)NC(=O)[C@H](CO)NC(=O)[C@H](CO)NC(=O)[C@H](Cc3c[nH]cn3)NC(=O)N3CCOCC3)[C@@H](NC(=O)c3ccccc3)c3ccccc3)C(C)=C1C2(C)C | – | <2 | <3 | 10 | – | – |
| CC(=O)O[C@H]1C(=O)[C@]2(C)[C@@H](O)C[C@@H]3OC[C@]3(OC(C)=O)[C@@H]2[C@H](OC(=O)c2ccccc2)[C@]2(O)C[C@@H](OC(=O)[C@H](OC(=O)OCc3ccc(NC(=O)[C@H](CCC(N)=O)NC(=O)[C@H](CC(C)C)NC(=O)[C@H](CCCCN)NC(=O)[C@H](CO)NC(=O)[C@H](CO)NC(=O)[C@H](Cc4c[nH]cn4)NC(=O)N4CCOCC4)cc3)[C@@H](NC(=O)c3ccccc3)c3ccccc3)C(C)=C1C2(C)C | 30 | 87 | 10 | 12 | 1 | – |
| CC(=O)O[C@H]1C(=O)[C@]2(C)[C@@H](OC(=O)OCc3ccc(NC(=O)[C@H](CCC(N)=O)NC(=O)[C@H](CC(C)C)NC(=O)[C@H](CCCCN)NC(=O)[C@H](CO)NC(=O)[C@H](CO)NC(=O)[C@H](Cc4c[nH]cn4)NC(=O)N4CCOCC4)cc3)C[C@@H]3OC[C@]3(OC(C)=O)[C@@H]2[C@H](OC(=O)c2ccccc2)[C@]2(O)C[C@@H](OC(=O)[C@H](O)[C@@H](NC(=O)c3ccccc3)c3ccccc3)C(C)=C1C2(C)C | 30 | 92 | 7 | 14 | 1.5 | Km (Homo sapiens [4]): 216 µM; kcat (Homo sapiens [4]): 0.00585 s⁻¹; kcat/Km (Homo sapiens [5]): 27 M⁻¹ s⁻¹ |
| CC(=O)O[C@H]1C(=O)[C@]2(C)[C@@H](O)C[C@@H]3OC[C@]3(OC(C)=O)[C@@H]2[C@H](OC(=O)c2ccccc2)[C@]2(O)C[C@@H](OC(=O)[C@H](OC(=O)N(C)CCNC(=O)[C@H](CCC(N)=O)NC(=O)[C@H](Cc3ccc(O)cc3)NC(=O)[C@H](CCCCN)NC(=O)[C@H](CO)NC(=O)[C@H](CO)NC(=O)N3CCOCC3)[C@@H](NC(=O)c3ccccc3)c3ccccc3)C(C)=C1C2(C)C | – | <2 | <3 | 6 | – | IC50 [6]: < 1 nM; IC50 [7]: 1000 nM; IC50 (DU-145 [8]): < 1 nM; IC50 (TSU [9]): < 1 nM |
| NCCCC[C@H](NC(=O)[C@H](CO)NC(=O)[C@H](CO)NC(=O)N1CCOCC1)C(=O)N[C@@H](Cc1ccc(O)cc1)C(=O)N[C@@H](CCC(N)=O)C(=O)O ({Morpholide-CO}-SSKYQ-OH) | – | – | – | – | – | Activity (DU-145 [10]): Not toxic; Activity (TSU [11]): Not toxic; Activity (CWR22R): Not toxic |
